Experimental data published in US6946464B2, “Methods of treating and preventing a convulsive state” (Sepracor Inc., priority 1999, dated 2005).

Key:
[1] = target: central benzodiazepine receptor; assay: Binding at the central benzodiazepine receptor (competition of specific binding); settings: rat cerebral cortex; for IC50: 10 concentrations in duplicate, nonlinear regression; for Ki: inhibition constant calculated from competition curves
Procedure: (§1) The binding of N-desmethylzopiclone was determined at the central benzodiazepine receptor and at the non-selective muscarinic receptor, both of which were isolated from rat cerebral cortex. Compounds were tested initially at 10 μM in duplicate, and if at least a 50% inhibition of specific binding was observed, they were tested further at 10 different concentrations in duplicate in order to obtain full competition curves. IC50 values (concentration required to inhibit 50% specific binding) were determined by nonlinear regression analysis of the curves, and inhibition constants (Ki) were also calculated.

[2] = tested on: non-selective muscarinic receptor; assay: Binding at the non-selective muscarinic receptor; settings: rat cerebral cortex; tested at 10 μM in duplicate
Procedure: as §1

[3] = as reported by Goa and Heel, Drugs 32:48-65 (1986); cited from earlier work
[4] = healthy humans; cited from earlier work

Row | SMILES | IC50 [1] [nM] | Ki [1] [nM] | Muscarinic (% Inhibition) [2] [%] | reported pharmacological activity [3] | share of an oral dose of racemic zopiclone accounted for by the metabolite [4] [%]
1 | O=C(OC1c2nccnc2C(=O)N1c1ccc(Cl)cn1)N1CCNCC1 (racemic) [(±)-N-desmethylzopiclone] | 1100 | 924 | 10 |  | 
2 | O=C(O[C@H]1c2nccnc2C(=O)N1c1ccc(Cl)cn1)N1CCNCC1 [(+)-N-desmethylzopiclone] | 545 | 458 | 19 |  | 
3 | O=C(O[C@@H]1c2nccnc2C(=O)N1c1ccc(Cl)cn1)N1CCNCC1 [(−)-N-desmethylzopiclone] | 7090 | 5960 | 24 |  | 
4 | CN1C(=O)CN=C(c2ccccc2)c2cc(Cl)ccc21 [Diazepam, reference compound] | 12 | 10 |  |  | 
5 | O=C(O[C@H]1c2nccnc2C(=O)N1c1ccc(Cl)cn1)N1CCNCC1 [N-desmethylzopiclone] |  |  |  | inactive | 15
6 | C[N+]1([O-])CCN(C(=O)O[C@H]2c3nccnc3C(=O)N2c2ccc(Cl)cn2)CC1 [N-oxidezopiclone, reference compound] |  |  |  | less active than zopiclone | 11
